Results taken from ChEMBL document CHEMBL5223091, “Targeting the Mitotic Kinesin KIF18A in Chromosomally Unstable Cancers: Hit Optimization Toward an In Vivo Chemical Probe” (J Med Chem, 2022).
Active and inactive are the calls of the source. The calls are words filed in the database; no cut-off is given here.

What was measured:
MDA-MB-157 = test: Induction of mitotic arrest in TP53 mutant human MDA-MB-157 cells assessed as multipolar spindle arrays by measuring pericentriolar material incubated for 24 hrs by mitotic index assay; format: functional, cell-based; settings: MDA-MB-157, 24 h
OVCAR-3 [1] = test: Antimitotic activity in human OVCAR-3 cells xenografted in CD-1 mouse assessed as increase in phospho-histone H3 positive cells in tumor at 100 mg/kg, po measured after 8 hrs; format: functional, organism-based
OVCAR-3 [2] = test: Antimitotic activity in human OVCAR-3 cells xenografted in CD-1 mouse assessed as increase in phospho-histone H3 positive cells in tumor at 100 mg/kg, po measured after 24 hrs; format: functional, organism-based
[3] = target: T1, Kinesin-like protein KIF18A (Mus musculus, UniProt Q91WD7); test: Inhibition of recombinant His-tagged mouse KIF18A expressed in Trichoplusia ni insect cells assessed as inhibition of microtubule-stimulated ATPase activity preincubated for 30 mins followed by ATP addition and further incubated for 15 mins by ADP-Glo reagent based assay; parameters: species or system Insect cell
T1 sequence (Q91WD7 whole entry): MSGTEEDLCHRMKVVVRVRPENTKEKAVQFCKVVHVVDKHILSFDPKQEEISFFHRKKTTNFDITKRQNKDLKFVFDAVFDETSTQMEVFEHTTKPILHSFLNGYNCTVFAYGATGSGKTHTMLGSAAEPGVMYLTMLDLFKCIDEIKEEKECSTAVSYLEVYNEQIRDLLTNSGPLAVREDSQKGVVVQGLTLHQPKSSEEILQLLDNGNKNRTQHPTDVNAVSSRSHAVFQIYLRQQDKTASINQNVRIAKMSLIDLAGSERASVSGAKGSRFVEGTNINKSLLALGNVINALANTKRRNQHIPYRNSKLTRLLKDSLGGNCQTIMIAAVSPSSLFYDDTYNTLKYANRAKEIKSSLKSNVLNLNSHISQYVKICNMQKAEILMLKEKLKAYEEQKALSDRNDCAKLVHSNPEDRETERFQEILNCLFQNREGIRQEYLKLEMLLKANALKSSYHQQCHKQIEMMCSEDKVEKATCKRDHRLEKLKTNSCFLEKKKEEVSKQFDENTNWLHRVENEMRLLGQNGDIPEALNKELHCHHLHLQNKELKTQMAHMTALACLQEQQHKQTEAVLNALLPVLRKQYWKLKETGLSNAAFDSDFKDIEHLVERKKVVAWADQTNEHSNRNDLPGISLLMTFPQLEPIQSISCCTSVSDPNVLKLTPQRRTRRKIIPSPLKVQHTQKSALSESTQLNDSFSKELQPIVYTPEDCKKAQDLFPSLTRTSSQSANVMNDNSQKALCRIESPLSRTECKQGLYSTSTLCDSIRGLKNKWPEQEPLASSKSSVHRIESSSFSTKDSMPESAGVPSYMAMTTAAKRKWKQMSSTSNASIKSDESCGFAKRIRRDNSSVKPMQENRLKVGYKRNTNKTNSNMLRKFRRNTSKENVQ

[4] = Metabolic stability in human liver microsomes assessed as intrinsic clearance at 0.5 uM incubated upto 40 mins by LCMS analysis; format: ADME, Microsome; settings: read-out: CLH
[5] = Plasma concentration in CD-1 mouse xenografted with human OVCAR-3 cells at 100 mg/kg, po measured after 8 hrs; format: ADME, organism-based
[6] = target: T2, Kinesin-like protein KIF11 (Homo sapiens, UniProt P52732); test: Inhibition of recombinant GST-tagged human Eg5 assessed as inhibition of microtubule-stimulated ATPase activity preincubated for 30 mins followed by ATP addition and further incubated for 15 mins by ADP-Glo reagent based assay
T2 sequence (P52732 whole entry): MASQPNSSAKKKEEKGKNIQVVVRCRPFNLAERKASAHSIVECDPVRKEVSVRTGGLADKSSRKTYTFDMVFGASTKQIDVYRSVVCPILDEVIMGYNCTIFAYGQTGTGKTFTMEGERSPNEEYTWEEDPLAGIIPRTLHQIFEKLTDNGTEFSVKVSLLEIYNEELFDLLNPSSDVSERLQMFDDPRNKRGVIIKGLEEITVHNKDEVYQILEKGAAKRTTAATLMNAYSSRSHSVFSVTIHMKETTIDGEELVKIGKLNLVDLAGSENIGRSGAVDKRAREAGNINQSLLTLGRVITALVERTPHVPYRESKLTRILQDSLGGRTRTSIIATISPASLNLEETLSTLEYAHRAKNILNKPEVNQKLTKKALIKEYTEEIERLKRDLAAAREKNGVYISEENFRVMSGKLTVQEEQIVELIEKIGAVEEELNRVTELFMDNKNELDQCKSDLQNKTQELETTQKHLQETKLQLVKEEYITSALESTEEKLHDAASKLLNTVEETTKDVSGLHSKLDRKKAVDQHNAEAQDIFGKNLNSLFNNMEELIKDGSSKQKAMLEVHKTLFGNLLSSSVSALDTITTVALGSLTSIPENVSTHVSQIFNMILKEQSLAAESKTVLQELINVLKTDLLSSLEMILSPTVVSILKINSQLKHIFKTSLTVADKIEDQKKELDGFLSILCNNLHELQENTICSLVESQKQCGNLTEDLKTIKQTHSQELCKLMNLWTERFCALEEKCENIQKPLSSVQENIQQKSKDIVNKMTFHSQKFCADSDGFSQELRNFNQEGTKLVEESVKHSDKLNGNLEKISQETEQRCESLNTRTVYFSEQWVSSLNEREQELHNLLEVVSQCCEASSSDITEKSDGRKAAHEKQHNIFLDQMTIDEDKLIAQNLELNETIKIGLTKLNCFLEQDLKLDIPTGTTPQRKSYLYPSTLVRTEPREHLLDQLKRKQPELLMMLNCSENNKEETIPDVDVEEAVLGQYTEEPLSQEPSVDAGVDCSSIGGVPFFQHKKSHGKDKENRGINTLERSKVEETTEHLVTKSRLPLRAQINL

[7] = Metabolic stability in mouse liver microsomes assessed as intrinsic clearance at 0.5 uM incubated upto 40 mins by LCMS analysis; format: ADME, Microsome; settings: read-out: CLH
[8] = Cmax in CD-1 mouse xenografted with human OVCAR-3 cells at 100 mg/kg, po by LC-MS/MS analysis; format: ADME, organism-based; parameters: dose 100 mg/kg, route po; settings: in vivo
[9] = target: Centromere-associated protein E (Homo sapiens, UniProt Q02224); test: Inhibition of recombinant GST-tagged human CENP-E assessed as inhibition of microtubule-stimulated ATPase activity preincubated for 30 mins followed by ATP addition and further incubated for 15 mins by ADP-Glo reagent based assay
Centromere-associated protein E, sequence (Q02224 whole entry): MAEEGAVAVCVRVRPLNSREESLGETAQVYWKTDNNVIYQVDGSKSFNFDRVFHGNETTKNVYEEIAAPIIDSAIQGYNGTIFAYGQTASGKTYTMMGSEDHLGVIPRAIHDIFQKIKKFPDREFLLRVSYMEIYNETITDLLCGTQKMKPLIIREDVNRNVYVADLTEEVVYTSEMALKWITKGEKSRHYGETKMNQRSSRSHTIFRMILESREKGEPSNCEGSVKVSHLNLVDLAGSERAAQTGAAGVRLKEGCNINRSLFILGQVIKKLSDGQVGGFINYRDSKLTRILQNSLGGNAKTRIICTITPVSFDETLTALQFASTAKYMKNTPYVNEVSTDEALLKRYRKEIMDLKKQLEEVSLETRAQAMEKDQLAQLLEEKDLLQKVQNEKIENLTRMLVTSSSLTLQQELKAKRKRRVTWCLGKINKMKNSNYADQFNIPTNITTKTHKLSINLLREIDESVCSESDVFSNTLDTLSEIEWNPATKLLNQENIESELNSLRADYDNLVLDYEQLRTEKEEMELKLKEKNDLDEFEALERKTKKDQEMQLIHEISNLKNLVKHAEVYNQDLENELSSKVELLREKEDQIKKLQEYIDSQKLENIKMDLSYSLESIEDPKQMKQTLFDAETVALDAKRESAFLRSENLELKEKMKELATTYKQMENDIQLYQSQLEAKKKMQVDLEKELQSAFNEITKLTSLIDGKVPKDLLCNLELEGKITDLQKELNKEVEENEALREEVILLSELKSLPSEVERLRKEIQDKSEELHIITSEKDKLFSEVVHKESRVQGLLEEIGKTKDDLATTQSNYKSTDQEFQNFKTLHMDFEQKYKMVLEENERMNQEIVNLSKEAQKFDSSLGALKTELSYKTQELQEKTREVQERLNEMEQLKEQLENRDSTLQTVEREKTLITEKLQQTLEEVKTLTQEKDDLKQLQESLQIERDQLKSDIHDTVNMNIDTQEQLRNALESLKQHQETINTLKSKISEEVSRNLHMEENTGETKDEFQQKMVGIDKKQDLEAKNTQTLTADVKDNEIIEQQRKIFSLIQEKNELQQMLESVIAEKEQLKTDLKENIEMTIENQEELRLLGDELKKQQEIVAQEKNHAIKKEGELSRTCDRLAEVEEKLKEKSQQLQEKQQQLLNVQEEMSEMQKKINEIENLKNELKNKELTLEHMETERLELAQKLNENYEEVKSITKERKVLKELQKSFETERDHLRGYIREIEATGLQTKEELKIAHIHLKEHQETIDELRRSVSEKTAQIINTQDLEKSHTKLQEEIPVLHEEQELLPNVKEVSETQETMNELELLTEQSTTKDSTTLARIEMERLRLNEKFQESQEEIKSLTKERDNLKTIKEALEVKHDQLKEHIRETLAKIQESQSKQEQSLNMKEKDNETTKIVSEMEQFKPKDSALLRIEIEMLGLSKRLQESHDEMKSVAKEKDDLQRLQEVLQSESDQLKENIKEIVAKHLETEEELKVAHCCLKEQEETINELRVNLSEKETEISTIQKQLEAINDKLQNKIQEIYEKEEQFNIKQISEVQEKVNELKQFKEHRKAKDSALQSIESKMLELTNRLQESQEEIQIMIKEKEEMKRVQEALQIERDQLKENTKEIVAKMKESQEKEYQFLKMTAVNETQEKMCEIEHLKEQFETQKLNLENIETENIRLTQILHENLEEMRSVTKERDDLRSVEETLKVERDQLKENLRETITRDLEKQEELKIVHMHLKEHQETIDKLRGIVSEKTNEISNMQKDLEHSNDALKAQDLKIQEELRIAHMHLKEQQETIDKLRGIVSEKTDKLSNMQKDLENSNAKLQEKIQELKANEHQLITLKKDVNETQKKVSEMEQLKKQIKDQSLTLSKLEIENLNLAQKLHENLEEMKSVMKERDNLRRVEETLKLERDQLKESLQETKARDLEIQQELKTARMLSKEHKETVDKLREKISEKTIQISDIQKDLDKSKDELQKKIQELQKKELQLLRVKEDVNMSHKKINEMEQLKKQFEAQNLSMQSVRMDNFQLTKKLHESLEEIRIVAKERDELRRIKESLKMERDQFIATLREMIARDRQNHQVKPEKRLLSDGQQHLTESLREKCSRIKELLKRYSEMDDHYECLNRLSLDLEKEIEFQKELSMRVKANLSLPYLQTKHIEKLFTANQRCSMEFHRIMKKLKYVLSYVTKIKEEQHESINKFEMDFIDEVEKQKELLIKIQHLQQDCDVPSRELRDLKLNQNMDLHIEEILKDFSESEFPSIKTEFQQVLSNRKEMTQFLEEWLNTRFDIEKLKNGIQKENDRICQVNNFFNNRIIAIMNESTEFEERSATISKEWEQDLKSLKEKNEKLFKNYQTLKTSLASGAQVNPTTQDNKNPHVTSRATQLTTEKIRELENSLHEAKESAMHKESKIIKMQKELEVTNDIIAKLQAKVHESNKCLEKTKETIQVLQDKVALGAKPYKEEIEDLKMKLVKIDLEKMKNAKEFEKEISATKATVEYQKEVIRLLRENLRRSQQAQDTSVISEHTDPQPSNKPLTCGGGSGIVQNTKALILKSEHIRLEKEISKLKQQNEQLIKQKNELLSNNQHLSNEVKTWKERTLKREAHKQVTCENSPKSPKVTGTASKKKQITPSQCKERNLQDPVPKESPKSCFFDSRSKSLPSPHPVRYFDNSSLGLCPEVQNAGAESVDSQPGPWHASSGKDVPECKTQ

[10] = Volume of distribution at steady state in CD-1 mouse at 1 mg/kg, iv and 10 mg/kg, po; format: ADME, organism-based; settings: in vivo
OVCAR-3 [11] = test: Antiproliferative activity against human OVCAR-3 cells by nuclear count assay; format: functional, cell-based
[12] = Cmax in CD-1 mouse at 1 mg/kg, iv and 10 mg/kg, po; format: ADME, organism-based; parameters: dose 10 mg/kg, route po; settings: in vivo

For `CC(C)(C)NS(=O)(=O)c1cccc(NC(=O)c2ncc(NS(C)(=O)=O)nc2N2CCC3(CC2)CC3)n1`, the IC50 (MDA-MB-157) was 32 nM, the Activity (OVCAR-3 [1]) was “Active” and the Activity (OVCAR-3 [2]) was “inactive”. The IC50 [3] was 77 nM, the microsomal CLint at 0.5 µM [4] was 127 µL/min/mg and the concentration at 8 h [5] was 5.7 µM. It also gave an IC50 [6] greater than 100000 nM, a microsomal CLint at 0.5 µM [7] of 64 µL/min/mg and a Cmax [8] of 6.1 µM. It also gave an IC50 [9] of 86000 nM, a Vdss [10] of 2 L/kg and an EC50 (OVCAR-3 [11]) of 32 nM. For the same compound, the Cmax [12] was 2.15 µM.
